Test results reported in patent publication US5019505A, “Enzymes having alpha-glycerol-3-phosphate oxidase activity, production and use thereof” (GEnzyme (U.K.) Ltd., priority 1986, dated 1991).
Where “and” joins values, the source holds several entries; their conditions need not be identical. Equal entries are not always repeated. Where two headings read alike, the source gives them in different places.

Key:
[1] = test system: α-glycerol-3-phosphate oxidase (α-GPO) from Propionibacterium freudenreichii subsp. freudenreichii (DSM 20270); test: α-GPO assay (Trinder-type H2O2 colour reaction, 505nm, 37° C.); assay type: biochemical
Experimental: Aliquots of the resulting supernatant containing partially purified α-GPO were used in the following test system: […]
L-α-glycerol-3-phosphate
4-amino-antipyrine 1.5 mM
Dimethylglutarate buffer (DMG; pH 7.5)
The rate of change of absorbance was measured at 505nm, 37° C. in a spectrophotometer.

[2] = test system: α-GPO from P. freudenreichii subsp. freudenreichii (NCIMB 5959); test: α-GPO assay (Trinder-type H2O2 colour reaction); assay type: biochemical; details: read-out: Km for L-α-glycerol-3-phosphate
[3] = test system: previously described examples of α-GPO; details: prior art enzymes; read-out: Km values for L-α-glycerol-3-phosphate; cited from earlier work
[4] = test system: α-GPO from P. freudenreichii subsp. shermanii (formerly P. shermanii) (NCIMB 9885); test: α-GPO assay (Trinder-type H2O2 colour reaction); assay type: biochemical, P. freudenreichii subsp. shermanii (NCIMB 9885); details: cell-free extract, read-out: Km of the α-GPO for L-α-glycerol-3-phosphate
Experimental: (§1) Freeze-dried cultures of `P. acidi-propionici`(formerly `arabinosum`) NCIMB 5958) and `P. freudenreichii` subsp. `shermanii`(formerly `P. shermanii`) (NCIMB 9885) were obtained from the National Collection of Industrial and Marine Bacteria, Torry Research Station, Aberdeen, Scotland. The organisms were grown in a similar manner to that described above for `P. freudenreichii` subsp. `freudenriechii` (DSM 20270). The microorganisms were harvested, disrupted and assayed for α-GPO again in a similar way to `P. `freudenreichii` subsp. `freudenreichii` (DSM 20270).

[5] = test system: α-GPO from P. freudenreichii subsp. shermanii (NCIMB 5964); test: α-GPO assay (Trinder-type H2O2 colour reaction); assay type: biochemical; details: read-out: Km for L-α-glycerol-3-phosphate
[6] = test system: α-GPO from P. acidi-propionici (formerly arabinosum) (NCIMB 5958); test: α-GPO assay (Trinder-type H2O2 colour reaction); assay type: biochemical, P. acidi-propionici (NCIMB 5958); details: cell-free extract, read-out: Km of the α-GPO for L-α-glycerol-3-phosphate
Experimental: as §1

[7] = listed as L-α0glycerol-3-phosphate

O=P(O)(O)OC[C@H](O)CO [L-α-glycerol-3-phosphate]
Km ([1]; characterisation of the preferred enzyme, read-out: Michaelis-Menten constant (Km) in respect of L-α-glycerol-3-phosphate): 15 µM
Km ([1]; high speed centrifugation supernatant, DMG pH 7.5, 37° C., 505nm, read-out: Km of the α-GPO for its substrate, L-α-glycerol-3-phosphate): 15 µM
Km ([1]; pooled active fractions after Sephadex G-200 gel filtration, read-out: Km of the α-GPO for its substrate L-α-glycerol-3-phosphate): 15 µM
Km ([1]; read-out: Km for L-α-glycerol-3-phosphate): 15 µM and ~15 µM
fold lower Km value than previously described α-GPO ([1]; versus Km of 2.5mM or greater of previously described α-GPO): 170 fold
Km [2]: 26 µM and ~26 µM
Km [3]: ≥ 2500 µM
Km [4, 7]: 22 µM
Km [4]: ~22 µM
Km [5]: 6 µM and ~6 µM
Km [6, 7]: 18 µM
Km [6]: ~18 µM
